Measured values taken from ChEMBL document CHEMBL4311960, “Two optimized antimicrobial peptides with therapeutic potential for clinical antibiotic-resistant Staphylococcus aureus” (Eur J Med Chem, 2019).
Converted amounts (≈) assume the structure as drawn.

Experiments:
Streptococcus mutans = assay: Antibacterial activity against Streptococcus mutans UA159 assessed as reduction in bacterial growth incubated for 24 hrs by serial dilution method; type: functional; settings: UA159, 24 h, read-out: MIC
Streptococcus sanguinis = assay: Antibacterial activity against Streptococcus sanguinis ATCC 10556 assessed as reduction in bacterial growth incubated for 24 hrs by serial dilution method; type: functional; settings: ATCC 10556, 24 h, read-out: MIC
Candida albicans = assay: Antifungal activity against Candida albicans ATCC 5314 assessed as reduction in fungal growth incubated for 24 hrs by serial dilution method; type: functional; settings: ATCC 5314, 24 h, read-out: MIC
Staphylococcus aureus [1] = assay: Antibacterial activity against methicillin-resistant Staphylococcus aureus ATCC 18466 assessed as reduction in bacterial growth incubated for 24 hrs by serial dilution method; type: functional; settings: ATCC 18466, 24 h, read-out: MIC
[2] = Hemolytic activity in mouse Erythrocyte assessed as HC50 incubated for 1 hr; type: ADME, cell-based; settings: mouse erythrocytes
Staphylococcus aureus [3] = assay: Antibacterial activity against Staphylococcus aureus ATCC 25923 assessed as reduction in bacterial growth incubated for 24 hrs by serial dilution method; type: functional; settings: ATCC 25923, 24 h, read-out: MIC
[4] = Hemolytic activity in mouse Erythrocyte at 640 ug/ml incubated for 1 hr relative to control; type: ADME, cell-based; settings: mouse erythrocytes, read-out: %max
Erythrocyte = assay: Hemolytic activity in mouse Erythrocyte assessed as HC10 incubated for 1 hr; type: ADME, cell-based
[5] = Cytotoxicity against human HEK293T cells assessed as cell viability at 5 to 640 ug/ml incubated for 48 hrs by MTT assay relative to control; type: cell-based, HEK-293T; settings: read-out: Activity
[6] = Cytotoxicity against human HEK293T cells assessed as cell viability at 640 ug/ml incubated for 48 hrs by MTT assay relative to control; type: cell-based, HEK-293T; settings: read-out: Activity

Compound	MIC (Streptococcus mutans) [µg/mL]	MIC (Streptococcus sanguinis) [µg/mL]	MIC (Candida albicans) [µg/mL]	MIC (Staphylococcus aureus [1]) [µg/mL]	HC50 at 1 h [2] [µg/mL]	MIC (Staphylococcus aureus [3]) [µg/mL]	hemolysis at 1 h, 640 ug/ml [4] [%]	HC10 (Erythrocyte) [µg/mL]	viability at 48 h [5] [%]	viability at 48 h, 640 ug/ml [6] [%]
CN[C@H](CC(C)C)C(=O)N[C@H]1C(=O)N[C@@H](CC(N)=O)C(=O)N[C@H]2C(=O)N[C@H]3C(=O)N[C@H](C(=O)N[C@H](C(=O)O)c4cc(O)cc(O)c4-c4cc3ccc4O)[C@H](O)c3ccc(c(Cl)c3)Oc3cc2cc(c3O[C@@H]2O[C@H](CO)[C@@H](O)[C@H](O)[C@H]2O[C@H]2C[C@](C)(N)[C@H](O)[C@H](C)O2)Oc2ccc(cc2Cl)[C@H]1O [VANCOMYCIN]	2 (≈ 1.38 µM)	1 (≈ 0.69 µM)								
H-YIRKIRRFFKKRFKFRKK-NH2	16	64	32	32	> 640	64	8.21	> 640	70 to 80	
H-YFRTIRRFFKKLFKTLKK-NH2	< 64	< 64	64	64	> 640	64	10.3	640	70 to 80	
H-WVRKVRRWWKKVKKVVKK-NH2	< 64	< 64	< 64	< 64	> 640	< 64	25.5	80.04		65.7
